Results as given in PubChem BioAssay (NCI).
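All cell lines were grown in 96-well plates and treated with compound for 48 hours. GI50: concentration for 50% inhibition of growth. TGI: total growth inhibition.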

Assays:
Experiment in all cases: NCI tumour cell line growth inhibition, 48 h; in the data active = GI50 below about 0.43 µM; inactive = the rest
[1] = tested on: HT29 colon
[2] = tested on: HOP-62 NSCLC
[3] = tested on: COLO 205 colon
[4] = tested on: HCT-116 colon
[5] = tested on: LOX IMVI melanoma
[6] = tested on: SF-268 CNS
[7] = tested on: NCI-H226 lung
[8] = tested on: KM12 colon
[9] = tested on: NCI-H522 lung
[10] = tested on: SK-OV-3 ovarian
[11] = tested on: SNB-78 CNS
[12] = tested on: SF-539 CNS
[13] = tested on: OVCAR-4 ovarian
[14] = tested on: U251 CNS
[15] = tested on: NCI-H23 lung
[16] = tested on: 786-0 renal
[17] = tested on: UO-31 renal
[18] = tested on: HOP-92 NSCLC
[19] = tested on: CCRF-CEM leukemia
[20] = tested on: EKVX NSCLC
[21] = tested on: DLD-1 colon
[22] = tested on: RPMI-8226 leukemia
[23] = tested on: HCT-15 colon
[24] = tested on: HOP-18 NSCLC
[25] = tested on: NCI-H460 lung
[26] = tested on: MALME-3M melanoma
[27] = tested on: OVCAR-3 ovarian
[28] = tested on: SR leukemia
[29] = tested on: A498 renal
[30] = tested on: TK-10 renal
[31] = tested on: A549 NSCLC
[32] = tested on: UACC-257 melanoma
[33] = tested on: CAKI-1 renal
[34] = tested on: SF-295 CNS
[35] = tested on: M19-MEL melanoma
[36] = tested on: SK-MEL-5 melanoma
[37] = tested on: HL-60(TB) leukemia
[38] = tested on: DMS 114 small cell lung
[39] = tested on: OVCAR-8 ovarian
[40] = tested on: SW-620 colon
[41] = tested on: SK-MEL-2 melanoma
[42] = tested on: SNB-75 CNS
[43] = tested on: K-562 leukemia
[44] = tested on: DMS 273 small cell lung
[45] = tested on: IGROV1 ovarian
[46] = tested on: XF 498 CNS
[47] = tested on: KM20L2 colon
[48] = tested on: SNB-19 CNS
[49] = tested on: OVCAR-5 ovarian
[50] = tested on: RXF 393 renal
[51] = tested on: UACC-62 melanoma
[52] = tested on: MOLT-4 leukemia
[53] = tested on: HCC-2998 colon
[54] = tested on: ACHN renal
[55] = tested on: M14 melanoma
[56] = tested on: LXFL 529 NSCLC
[57] = tested on: SN12C renal

O=C1C(c2ccccc2)=C(c2ccccc2)C(c2ccc(Cc3ccc(C4=C(c5ccccc5)C(=O)C(c5ccccc5)=C4c4ccccc4)cc3)cc2)=C1c1ccccc1
> 100 µM: TGI [1] | TGI [2] | TGI [3] | TGI [4] | TGI [5] | TGI [6] | TGI [7] | TGI [8] | TGI [9] | TGI [10] | TGI [11] | TGI [12] | TGI [13] | TGI [14] | TGI [15] | TGI [16] | TGI [17] | TGI [18] | TGI [19] | TGI [20] | TGI [21] | TGI [22] | TGI [23] | TGI [24] | TGI [25] | TGI [26] | TGI [27] | TGI [28] | TGI [29] | TGI [30] | TGI [31] | TGI [32] | TGI [33] | TGI [34] | TGI [35] | TGI [36] | TGI [37] | TGI [38] | TGI [39] | TGI [40] | TGI [41] | TGI [42] | TGI [43] | TGI [44] | TGI [45] | TGI [46] | TGI [47] | TGI [48] | TGI [49] | TGI [50] | TGI [51] | TGI [52]

COc1cc[c]([Sn]([c]2ccc(OC)cc2)([c]2ccc(OC)cc2)[c]2ccc(OC)cc2)cc1
51.1 µM: TGI [30]
56.1 µM: TGI [43]
28.5 µM: TGI [36]
48.6 µM: TGI [12]
38 µM: TGI [17]
36.4 µM: TGI [56]
22.8 µM: TGI [18]
62.8 µM: TGI [13]
96.7 µM: TGI [54]
> 100 µM: TGI [1] | TGI [2] | TGI [6] | TGI [10] | TGI [15] | TGI [20] | TGI [23] | TGI [25] | TGI [31] | TGI [34] | TGI [35] | TGI [38] | TGI [57] | TGI [39] | TGI [41] | TGI [42] | TGI [45] | TGI [46] | TGI [48] | TGI [49]
8.43 µM: TGI [26]
39 µM: TGI [52]
33.7 µM: TGI [27]
69.3 µM: TGI [51]
47 µM: TGI [47]
76.3 µM: TGI [29]
69.8 µM: TGI [19]
69.2 µM: TGI [33]
96.5 µM: TGI [44]
35.1 µM: TGI [22]
72.2 µM: TGI [14]
inactive: GI50 [1] 20.3 µM | GI50 [53] 17.8 µM | GI50 [2] 81.8 µM | GI50 [3] 18.3 µM | GI50 [4] 8.92 µM | GI50 [54] 17.4 µM | GI50 [5] 13.6 µM | GI50 [6] 29.7 µM | GI50 [55] 16.7 µM | GI50 [10] 96.5 µM | GI50 [11] 23.7 µM | GI50 [12] 16.8 µM | GI50 [13] 16.8 µM | GI50 [14] 20.8 µM | GI50 [15] 23.3 µM | GI50 [16] 18.1 µM | GI50 [17] 14.1 µM | GI50 [18] 4.2 µM | GI50 [19] 20.7 µM | GI50 [20] 35 µM | GI50 [22] 11.2 µM | GI50 [23] > 100 µM | GI50 [24] 3.81 µM | GI50 [25] 30.5 µM | GI50 [26] 3.31 µM | GI50 [56] 15.8 µM | GI50 [27] 12.5 µM | GI50 [29] 14.2 µM | GI50 [30] 17.9 µM | GI50 [31] 25.9 µM | GI50 [33] 10.9 µM | GI50 [34] 39.4 µM | GI50 [35] 34.6 µM | GI50 [36] 12.7 µM | GI50 [38] 23.5 µM | GI50 [57] > 100 µM | GI50 [39] 27.1 µM | GI50 [40] 18.9 µM | GI50 [41] 28.2 µM | GI50 [42] 24 µM | GI50 [43] 16.2 µM | GI50 [44] 25.2 µM | GI50 [45] 25.9 µM | GI50 [46] > 100 µM | GI50 [47] 18.2 µM | GI50 [48] 28.5 µM | GI50 [49] 33.3 µM | GI50 [51] 17.9 µM | GI50 [52] 10.7 µM
29.4 µM: TGI [5]
50.5 µM: TGI [53]
36 µM: TGI [55]
41.8 µM: TGI [3]
71 µM: TGI [11]
21.1 µM: TGI [24]
43.5 µM: TGI [16]
55.9 µM: TGI [40]
